# Measured values reported in patent US20250171461A1, “STIMULATOR OF INTERFERON GENES (STING) MODULATORS, AND COMPOSITIONS AND METHODS THEREOF” (Geode Therapeutics Inc., priority 2022, published 2025).
# Biological target: T1, human HAQ STING isoform (hSTING HAQ) (Homo sapiens, UniProt Q86WV6, G230A/H232R/R293Q/R71H)
# T1 construct: THP1 cells express the naturally occurring human HAQ STING isoform (hSTING HAQ); host or cells: THP1
# Experiment: IFN-β mRNA level in THP1 cells (qPCR, STING agonist cellular activity)
# Assay type: cell-based
# Conditions: compound at 3.6 μM, 2 hrs, IFNβ expression normalized against GAPDH by the 2^-ΔΔCT method, DMSO = 1.0
# Outline: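 THP1 cells were seeded at 9×10^5 per well, incubated overnight, then treated with compound at 3.6 μM final (0.1% DMSO control) for 2 hrs at 37 °C. IFN-β mRNA was measured by SYBR Green qPCR, normalised to GAPDH by the 2^−ΔΔCT method, in triplicate.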
# T1 sequence (Q86WV6 whole entry R71H/G230A/H232R/R293Q, canonical isoform): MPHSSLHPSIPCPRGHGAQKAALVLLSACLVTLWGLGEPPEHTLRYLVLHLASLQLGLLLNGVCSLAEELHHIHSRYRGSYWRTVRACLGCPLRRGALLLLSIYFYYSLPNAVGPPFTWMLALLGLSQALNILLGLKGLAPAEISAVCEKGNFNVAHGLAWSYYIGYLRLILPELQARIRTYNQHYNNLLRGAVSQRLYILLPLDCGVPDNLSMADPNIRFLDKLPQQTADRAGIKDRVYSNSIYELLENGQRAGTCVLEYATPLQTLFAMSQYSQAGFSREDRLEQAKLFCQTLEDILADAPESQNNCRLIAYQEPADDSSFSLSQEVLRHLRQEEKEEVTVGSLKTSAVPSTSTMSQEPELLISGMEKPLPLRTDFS
row,SMILES,Relative mRNA INFβ/GAPDH THP 1
1,"N#Cc1cc(CN(Cc2cn3c4c(c(F)c(F)cc4c2=O)OCC3)[C@H]2CCCN(c3cnccn3)C2)ccn1 [Compound 89, (S)-4-((((9,10-difluoro-7-oxo-2,3-dihydro-7H-[1,4]oxazino[2,3,4-ij]quinolin-6-yl)methyl)(1-(pyrazin-2-yl)piperidin-3-yl)amino)methyl)picolinonitrile]",1.3
2,"Cc1cc(CN(Cc2cn3c4c(c(F)c(F)cc4c2=O)OCC3C)[C@H]2CCCN(c3cccnc3)C2)ccn1 (stereo partly drawn) [Compound 10, 9,10-difluoro-3-methyl-6-((((2-methylpyridin-4-yl)methyl)((S)-1-(pyridin-3-yl)piperidin-3-yl)amino)methyl)-2H-[1,4]oxazino[2,3,4-ij]quinolin-7(3H)-one]",336.8
3,"COc1cc(CN(Cc2cn3c4c(c(N5CCNC(C)C5)c(F)cc4c2=O)OCC3C)[C@H]2CCCN(c3ccc(N)nc3)C2)ccn1 (stereo partly drawn) [Compound 40, 6-((((S)-1-(6-aminopyridin-3-yl)piperidin-3-yl)((2-methoxypyridin-4-yl)methyl)amino)methyl)-9-fluoro-3-methyl-10-(3-methylpiperazin-1-yl)-2H-[1,4]oxazino[2,3,4-ij]quinolin-7(3H)-one]",352.8
4,"O=c1c(CN(Cc2ccncc2F)[C@H]2CCCN(c3cnccn3)C2)cn2c3c(c(F)c(F)cc13)OCC2 [Compound 87, (S)-9,10-difluoro-6-((((3-fluoropyridin-4-yl)methyl)(1-(pyrazin-2-yl)piperidin-3-yl)amino)methyl)-2,3-dihydro-7H-[1,4]oxazino[2,3,4-ij]quinolin-7-one]",1.2
5,"COc1cc(CN(Cc2cn3c4c(c(OC)c(F)cc4c2=O)OCC3C)[C@H]2CCCN(c3ccc(N)nc3)C2)ccn1 (stereo partly drawn) [Compound 103, 6-((((S)-1-(6-aminopyridin-3-yl)piperidin-3-yl)((2-methoxypyridin-4-yl)methyl)amino)methyl)-9-fluoro-10-methoxy-3-methyl-2,3-dihydro-7H-[1,4]oxazino[2,3,4-ij]quinolin-7-one]",356.0
6,"COc1cc(CN(Cc2cn3c4c(c(F)c(F)cc4c2=O)OCC3C)[C@H]2CCCN(c3ccc(NCC4CC4)nc3)C2)ccn1 (stereo partly drawn) [Compound 20, 11-[[[(3S)-1-[6-(cyclopropylmethylamino)-3-pyridyl]-3-piperidyl]-[(2-methoxy-4-pyridyl)methyl]amino]methyl]-6,7-difluoro-2-methyl-4-oxa-1-azatricyclo[7.3.1.0^5,13]trideca-5(13),6,8,11-tetraen-10-one]",2142.1
7,"COc1cc(CN(Cc2cn3c4c(c(F)c(F)cc4c2=O)OCC3)[C@H]2CCCN(c3ccc([N+](=O)[O-])nc3)C2)ccn1 [Compound 65, (S)-9,10-difluoro-6-((((2-methoxypyridin-4-yl)methyl)(1-(6-nitropyridin-3-yl)piperidin-3-yl)amino)methyl)-2,3-dihydro-7H-[1,4]oxazino[2,3,4-ij]quinolin-7-one]",7.4
8,"COc1cc(CN(Cc2cn3c4c(c(N5CCC(N6CCOCC6)CC5)c(F)cc4c2=O)OCC3C)[C@H]2CCCN(c3ccc(N)nc3)C2)ccn1 (stereo partly drawn) [Compound 36, 6-((((S)-1-(6-aminopyridin-3-yl)piperidin-3-yl)((2-methoxypyridin-4-yl)methyl)amino)methyl)-9-fluoro-3-methyl-10-(4-morpholinopiperidin-1-yl)-2H-[1,4]oxazino[2,3,4-ij]quinolin-7(3H)-one]",9395.6
9,"Cc1ccc(N2CCC[C@H](N(Cc3ccnc(N)c3)Cc3cn4c5c(c(F)c(F)cc5c3=O)OCC4C)C2)cn1 (stereo partly drawn) [Compound 11, 6-((((2-aminopyridin-4-yl)methyl)((S)-1-(6-methylpyridin-3-yl)piperidin-3-yl)amino)methyl)-9,10-difluoro-3-methyl-2H-[1,4]oxazino[2,3,4-ij]quinolin-7(3H)-one]",65.6
10,"COc1cc(CN(Cc2cn3c4c(c(-c5ccncc5)c(F)cc4c2=O)OCC3C)[C@H]2CCCN(c3ccc(N)nc3)C2)ccn1 (stereo partly drawn) [Compound 56, 6-((((S)-1-(6-aminopyridin-3-yl)piperidin-3-yl)((2-methoxypyridin-4-yl)methyl)amino)methyl)-9-fluoro-3-methyl-10-(pyridin-4-yl)-2H-[1,4]oxazino[2,3,4-ij]quinolin-7(3H)-one]",366.2
11,"Cc1cc(CN(Cc2cn3c4c(c(F)c(F)cc4c2=O)OCC3C)[C@H]2CCCN(c3ccc(C#N)nc3)C2)ccn1 (stereo partly drawn) [Compound 12, 5-((3S)-3-(((9,10-difluoro-3-methyl-7-oxo-3,7-dihydro-2H-[1,4]oxazino[2,3,4-ij]quinolin-6-yl)methyl)((2-methylpyridin-4-yl)methyl)amino)piperidin-1-yl)picolinonitrile]",14.1
12,"COc1cc(CN(Cc2cn3c4c(c(F)c(F)cc4c2=O)OCC3C)[C@H]2CCCN(c3ccc(N4CCCC4)nc3)C2)ccn1 (stereo partly drawn) [Compound 17, 9,10-difluoro-6-((((2-methoxypyridin-4-yl)methyl)((S)-1-(6-(pyrrolidin-1-yl)pyridin-3-yl)piperidin-3-yl)amino)methyl)-3-methyl-2H-[1,4]oxazino[2,3,4-ij]quinolin-7(3H)-one]",6.7
13,"COc1cc(CN(Cc2cn3c4c(c(N5CCC6(CC5)CC(O)CO6)c(F)cc4c2=O)OCC3C)[C@H]2CCCN(c3ccc(N)nc3)C2)ccn1 (stereo partly drawn) [Compound 44, 6-((((S)-1-(6-aminopyridin-3-yl)piperidin-3-yl)((2-methoxypyridin-4-yl)methyl)amino)methyl)-9-fluoro-10-(3-hydroxy-1-oxa-8-azaspiro[4.5]decan-8-yl)-3-methyl-2H-[1,4]oxazino[2,3,4-ij]quinolin-7(3H)-one]",642.4
14,"NC(=O)c1cc(CN(Cc2cn3c4c(c(F)c(F)cc4c2=O)OCC3)[C@H]2CCCN(c3cnccn3)C2)ccn1 [Compound 92, (S)-4-((((9,10-difluoro-7-oxo-2,3-dihydro-7H-[1,4]oxazino[2,3,4-ij]quinolin-6-yl)methyl)(1-(pyrazin-2-yl)piperidin-3-yl)amino)methyl)picolinamide]",1.1
15,"COc1cc(CN(Cc2cn3c4c(c(F)c(F)cc4c2=O)OCCC3)[C@H]2CCCN(c3ccc(N)nc3)C2)ccn1 [Compound 47, (S)-7-(((1-(6-aminopyridin-3-yl)piperidin-3-yl)((2-methoxypyridin-4-yl)methyl)amino)methyl)-10,11-difluoro-3,4-dihydro-[1,4]oxazepino[2,3,4-ij]quinolin-8(2H)-one]",710.4
16,"COc1cc(CN(Cc2cn3c4c(c(F)c(F)cc4c2=O)OCC3)[C@H]2CCCN(c3cnccn3)C2)ccn1 [Compound 84, (S)-9,10-difluoro-6-((((2-methoxypyridin-4-yl)methyl)(1-(pyrazin-2-yl)piperidin-3-yl)amino)methyl)-2,3-dihydro-7H-[1,4]oxazino[2,3,4-ij]quinolin-7-one]",0.9
17,"COc1cc(CN(Cc2cn3c4c(c(F)c(F)cc4c2=O)OCC3C)[C@H]2CCCN(c3ccc(N(C)C4CC4)nc3)C2)ccn1 (stereo partly drawn) [Compound 21, 11-[[[(3S)-1-[6-[cyclopropyl(methyl)amino]-3-pyridyl]-3-piperidyl]-[(2-methoxy-4-pyridyl)methyl]amino]methyl]-6,7-difluoro-2-methyl-4-oxa-1-azatricyclo[7.3.1.0^5,13]trideca-5(13),6,8,11-tetraen-10-one]",114.6
18,"COc1cc(CN(Cc2cn3c4c(c(N5CC6(CCNCC6)C5)c(F)cc4c2=O)OCC3C)[C@H]2CCCN(c3ccc(N)nc3)C2)ccn1 (stereo partly drawn) [Compound 24, 6-((((S)-1-(6-aminopyridin-3-yl)piperidin-3-yl)((2-methoxypyridin-4-yl)methyl)amino)methyl)-9-fluoro-3-methyl-10-(2,7-diazaspiro[3.5]nonan-2-yl)-2H-[1,4]oxazino[2,3,4-ij]quinolin-7(3H)-one]",437.3
19,"COc1cc(CN(Cc2cn3c4c(c(F)c(F)cc4c2=O)OCC3(C)C)[C@H]2CCCN(c3ccc(N)nc3)C2)ccn1 [Compound 48, (S)-6-(((1-(6-aminopyridin-3-yl)piperidin-3-yl)((2-methoxypyridin-4-yl)methyl)amino)methyl)-9,10-difluoro-3,3-dimethyl-2H-[1,4]oxazino[2,3,4-ij]quinolin-7(3H)-one]",1202.3
20,"COc1cc(CN(Cc2cn3c4c(c(N5CCc6ccccc6C5)c(F)cc4c2=O)OCC3C)[C@H]2CCCN(c3ccc(N)nc3)C2)ccn1 (stereo partly drawn) [Compound 33, 6-((((S)-1-(6-aminopyridin-3-yl)piperidin-3-yl)((2-methoxypyridin-4-yl)methyl)amino)methyl)-10-(3,4-dihydroisoquinolin-2(1H)-yl)-9-fluoro-3-methyl-2H-[1,4]oxazino[2,3,4-ij]quinolin-7(3H)-one]",849.2
21,"Cc1cc(CN(Cc2cn3c4c(c(F)c(F)cc4c2=O)OCC3C)[C@H]2CCCN(c3ccc(C(N)=O)nc3)C2)ccn1 (stereo partly drawn) [Compound 13, 5-((3S)-3-(((9,10-difluoro-3-methyl-7-oxo-3,7-dihydro-2H-[1,4]oxazino[2,3,4-ij]quinolin-6-yl)methyl)((2-methylpyridin-4-yl)methyl)amino)piperidin-1-yl)picolinamide]",3.6
22,"Cc1cc(CN(Cc2cn3c4c(c(F)c(F)cc4c2=O)OCC3)[C@H]2CCCN(c3ccc(N)nc3)C2)ccn1 [Compound 71, (S)-6-(((1-(6-aminopyridin-3-yl)piperidin-3-yl)((2-methylpyridin-4-yl)methyl)amino)methyl)-9,10-difluoro-2,3-dihydro-7H-[1,4]oxazino[2,3,4-ij]quinolin-7-one]",6763.7
